Laboratory results taken from patent publication US11110185B2, “Combination formulation” (GE Healthcare AS, priority 2015, dated 2021).

Legend:
[1] = In vitro relaxivity measurements (NMR relaxometer, 60 MHz, 37° C.); assay type: physicochemical
Method: In vitro relaxivity measurements were used to evaluate the efficacy (relaxivity) of the Combo formulations compared to the standalone commercial contrast agents. Longitudinal relaxation times were measured in 150 mM saline solution at 37° C. using a Minispec Mq benchtop NMR relaxometer (Bruker Instruments, Rheinstetten, Germany) operating at 60 MHz. The longitudinal relaxivity of the complexes were calculated by plotting the reciprocal of the T1 relaxation time versus the gadolinium concentration as determined via ICP-MS for each individual agent and the Combo formulations tested.

[2] = Contrast-enhanced MR imaging of dynamic vascular and delayed phases in minipigs; assay type: in vivo, Gottingen minipigs; settings: for Peak Aorta SI: aorta ROI, 3.0 T, IV single injection 0.3 ml/kg; for percentage relative vascular intensity (1-RVI %), AP: arterial phase, 30 secs; for RVI AUC (total vascular enhancement: aorta, IVC, PV): composite RVI curves normalised to liver parenchyma, trapezoidal rule; for percentage relative vascular intensity (1-RVI %), LVP: late venous phase, 120 secs; for percentage relative vascular intensity (1-RVI %), PVP: portal venous phase, 60 secs
Method: The study was approved by the Universitair Ziekenhuis Brussel (UZB), Belgium local ethics committee for animal experiments on the 9 Mar. 2016 (EC number: 16-272-4). All animal experiments were carried out in accordance with the applicable laws and regulations. Naïve minipigs (Gottingen minipigs, Ellegaard Gottingen Minipigs, Denmark) were chosen as the model as its cardiac function and vascular dynamics closely resembles that of the human allowing optimal spatial and temporal resolution for the evaluation of the dynamic vascular phase.
The study consisted of five dosing groups (2 groups of contrast agent administered as single stand-alone dose; 3 groups administered with the Combo formulations). Each animal was tested once within each dosing group with a washout period of one week.
For each MRI examination, anaesthesia was induced with a bolus of the Zoletil mixture (0.06 ml/kg, intramuscular) and maintained by an infusion of Nesdonal (0.6 ml/kg/h, intravenously (IV) administered). Test items were administered IV as a single injection via PAC unit (Port-a-cath, Power PAC II, 1.9 mm, Smiths Medical, Belgium). The test items were administered at a volume of 0.3 ml/kg using a power injector (Medrad Spectris Solaris) at a rate of 2 ml/s. Immediately following administration, 20 ml saline was passed through the tubing to flush any remaining test item.
All MRI acquisitions were performed on a clinical 3.0 T GE MR750w scanner (GE Discovery, GE Healthcare, Waukesha, Wis.) using an abdominal phase-array surface coil positioned on the abdomen of the pigs. A multiphase dynamic 3D T1w LAVA (Liver Acquisition with Volume Acquisition) was performed using bolus timing to capture the early arterial to the late venous vascular phase using the following imaging parameters: TR/TE=2.9/1.3 ms, FA=12°, FoV=42×40 cm, matrix 220×160, slice thickness=3 mm, number of slices=40, NEX=1. The protocol also included a free-breathing navigated LAVA acquired at both pre and post administration of test item (during the delayed enhancement phase).
Quantitative analysis on the time-resolved dynamic series was completed using the Advantage Windows VolumeShare 7 Workstation (GE Healthcare). […] Visual verification of all ROI locations was performed by an abdominal radiologist. For each test item, absolute signal intensity (SI) curves were analysed for each of the ROIs and expressed as peak value with inter-quartile ranges of 25% and 75%.
To calculate the vascular enhancement, relative vascular intensity (RVI) was normalised to liver parenchyma for the aorta, IVC and PV using the equation below.
Relative Vascular Intensity (RVI)=(SI(Vessel)−SI(Liver))/(SI(Liver))
Using the RVI curves, composite vascular intensity curves were derived encompassing all vascular signal from the aorta, IVC and the PV. The total vascular enhancement associated with each test item was determined by the trapezoidal rule of area under the curve (AUC), where positive signal above y=0 was included. From this, time-relative fractions at the arterial phase (AP: 30 secs), portal venous phase (PVP: 60 secs) and late venous phase (LVP: 120 secs) were expressed as a proportion of the total vascular AUC (% RVI) and were calculated as 1-% RVI to give the percentage reduction though each phase.
For the delayed phase, a qualitative assessment was performed by an experienced radiologist for the presence or lack of enhancement pre and post-administration of test item.

[3] = normal liver, after intravenous injection; cited from earlier work

Substance	Relaxivity in aqueous solution (r1) [1] [mM⁻¹ s⁻¹]	peak arterial enhancement, SI (in words) ([2]; SI curves, aorta)	Peak Aorta SI [2]	percentage relative vascular intensity (1-RVI %), AP [2] [%]	RVI AUC (total vascular enhancement: aorta, IVC, PV) [2] [AU]	percentage relative vascular intensity (1-RVI %), LVP [2] [%]	percentage relative vascular intensity (1-RVI %), PVP [2] [%]	vascular enhancement in LVP (in words) ([2]; 120 secs post injection)	hepatobiliary excretion [3]
2-[4,7-his(carboxylatomethyl)-1 0-(carboxymethyl)-1,4, 7,10-tetrazacyclododec-1-yl]acetate; gadolinium(3+) [Gadoterate]	2.9	highest SI	2402	97.5	63.2	8.4	42.8		
disodium; 2-[[2-[bis(carboxylatomethyl)amino]-3-(4-ethoxyphenyl)propyl]-[2-bis(carboxylatomethyl)amino]ethyl]amino]acetate, gadolinium(3+) [Gadoxetate]	4.7		2096	82.4	34.2	0.0	19.0	no vascular enhancement evident	up to 50%
